{"source": "patent US4666897A", "about": "“Inhibition of mammalian collagenolytic enzymes by tetracyclines” (Research Foundation of State University, priority 1983, dated 1987)", "key": {"[1]": {"tested_on": "GCF collagenase and gingival disease in non-diabetic male", "assay": "Human GCF study, non-diabetic", "format": "in vivo", "experimental": "In a separate study involving humans, gingival crevicular fluid (GCF) samples were collected on filter paper strips inserted into 8 interproximal pockets of selected teeth in the maxillary arch of two twin brothers with juvenile-onset (insulin-dependent) diabetes mellitus. Fluid volume was immediately determined on a modified Periotron (Model 6000, Harco Electronics Ltd., Winnipeg, Canada); then incubated with 10 μl (^3 H-methyl) collagen (20,675 DPM) and 70 μl buffer (50 mM Tris-HCl, pH 7.8, containing 0.2 M sodium chloride and 5 mM calcium chloride). The GCF samples (or reagent blanks or trypsin controls) were incubated at 27° C. for 18 hours with gentle shaking. The reaction was stopped and undigested collagen precipitated by adding 10 μl 0.1 M phenanthroline in dioxane/water (1:1, v/v), 10 μl of nonradioactive methylated carrier collagen (2 mg/ml) in 50 mM Tris-HCl buffer containing 1M NaCl (pH 7.0), and 100 μl dioxane. After mixing, the radiolabeled collagen degradation products were collected by filtration and counted in a liquid scintillation spectrometer (Golub, et. al., 1976, J. Dent. Res., 55, 1049). Using this technique, the reaction blank (no enzyme or GCF added) released about 10% of the total substrate counts; 2-20 ng bacterial collagenase produced a linear increase in the release of radioactive counts from the ^3 H-collagen substrate (the 20 ng level of enzyme degraded 60% of the collagen substrate); and 50 ng trypsin released less than 1% of the counts above blank values. GCF collagenase activity was expressed as units of equivalent activity of vertebrate collagenase (obtained from New England Nuclear, Cat. No. NEK-016); 1 unit was operationally defined as the amount of enzyme that degrades 1 μg of collagen per hour at 27° C.\n[…] PD=4.2 mm±0.3), and GCF collagenolytic activity was measured as described above. […] Two additional GCF samples were collected from the same 4 mm pocket, in this patient, before and after minocycline therapy. These samples were incubated with 10 μl ^3 H-collagen for 18 hours (22° C.), then thermally denatured and the collagen subunits and collagenase digestion products were separated by SDS-polyacrylamide gel electrophoresis (Nicoll, et. al., Experientia., 37, 315-317 (1981)). The gels were processed for fluorography (see Sodek, et. al., J. Periodontal. Res., 16, 425-433 (1981)) and exposed to Kodak X A R-5 film for 3 days."}, "[2]": {"tested_on": "fetal rat bones (radii and ulnae) in organ culture", "assay": "PTH-induced bone resorption in organ culture (45calcium release)", "format": "cell-based", "experimental": "The technique used to assess bone resorption is based on monitoring the release of radioactive calcium, previously incorporated by embryonic bones in vivo, during organ culture. Pregnant Sprague-Dawley rats were injected subcutaneously with 200 μCi of ^45 calcium chloride on the 18th day of gestation. The following day, the animals were killed, the fetuses removed, and the radii and ulnae dissected under aseptic conditions. […] The bones were then randomly distributed and each bone, either a radius or ulna, was incubated in 0.5 ml of culture media alone or in a media containing parathyroid hormone (PTH: human synthetic 1-34 peptide, Beckman Instruments, Inc., Palo Alto, California) added in a final concentration of 1.0 μg/ml; the experimental bones were incubated in the PTH containing medium to which was added different concentrations (0.2-300 μg/ml) of the antibiotics to be tested. The bones were cultured for 5 days, with the media being changed after day 2, and the incubation terminated. The bones were decalcified in 0.2 ml of 5% trichloroacetic acid and the ^45 calcium content of the residual bones and of the culture media was measured as described previously. (Werner and Raisz, Endocrinology, 90, 752 (1972 ) and Gomes, et. al., Calc. Tiss. Res., 19, 285 (1976)). The ^45 calcium released into the media was calculated as a percentage of the total radioactive calcium measured in the bones."}, "[3]": {"tested_on": "synovial tissue collagenolytic activity", "assay": "Collagenolytic activity in extracts of synovial tissue from patients with rheumatoid arthritis", "format": "in vivo, human", "parameters": "Synovial Tissue Collagenolytic Activity (% C^14-collagen degraded) After Minocycline Treatment / % Reduction by Treatment: concentration or dose not given beside the values", "experimental": "In each of three patients, the diseased joint tissue on one side was surgically removed for therapeutic reasons. The three patients were then administered minocycline orally for 10 days and the diseased joint (synovial) tissue on the opposite side was surgically removed (for therapeutic reasons) after the course of minocycline treatment was completed. The tissues were coded, stored frozen, and analyzed double blind to eliminate any bias in the development of the data. The tissues were dried, the lipid removed, and the collagenolytic activity in the diseased joint tissues extracted and concentrated. Aliquots of the extract from each diseased joint were incubated in vitro with radiolabelled collagen fibrils for 72 hours at 37° C. to assess collagen destructive (collagenolytic) enzyme activity."}, "[4]": {"settings": "GCF from the same 4 mm pocket before and after therapy"}, "[5]": {"settings": "Table 3, PTH + 2 μg/ml minocycline + 100 μg/ml Pen.-Strep."}, "[6]": {"settings": "Table 3, PTH + 2 μg/ml minocycline + 300 μg/ml Pen.-Strep."}, "[7]": {"settings": "Table 3, PTH + 20 μg/ml minocycline + 100 μg/ml Pen.-Strep."}}, "data": [{"smiles": "CN(C)c1ccc(O)c2c1C[C@H]1C[C@H]3[C@H](N(C)C)C(O)=C(C(N)=O)C(=O)[C@@]3(O)C(O)=C1C2=O", "note": "[minocycline, Minocycline]", "values": [{"measurement": "densitometric analysis of fluorographs: degradation products", "setting": "[1]; GCF before and after therapy", "value": "reduced the percentage of the total radiolabeled collagenous material present as degradation products"}, {"measurement": "breakdown of intact ^3 H-collagen by GCF (SDS-PAGE fluorography)", "setting": "[1]; [4]", "value": "reduced the breakdown of the intact collagen"}, {"measurement": "production of α^A and α^B collagen digestion fragments by GCF (fluorography)", "setting": "[1]; [4]", "value": "inhibited the production"}, {"measurement": "pocket depth", "setting": "[1]; non-diabetic patient two", "value": "essentially unchanged"}, {"measurement": "reduction of G. I.", "setting": "[1]; non-diabetic patient two", "value": 26, "unit": "%"}, {"measurement": "reduction of GCF flow", "setting": "[1]; non-diabetic patient two", "value": 71, "unit": "%"}, {"measurement": "reduction of trypsin-activated collagenase in GCF", "setting": "[1]; non-diabetic patient two", "value": 59, "unit": "%"}, {"measurement": "reduction of active collagenase in GCF", "setting": "[1]; non-diabetic patient two, minocycline therapy as in (a)", "value": 86, "unit": "%"}, {"measurement": "^45 Calcium in Fetal Bone Released into Media (%) after 2 days incubation", "setting": "[2]; Table 3, PTH + 0.2 μg/ml", "value": "42.6 ± 0.6", "unit": "%"}, {"measurement": "^45 Calcium in fetal bone Released into media (%) after 5 days incubation", "setting": "[2]; Table 3, PTH + 0.2 μg/ml", "value": "75.6 ± 1.0", "unit": "%"}, {"measurement": "^45 Calcium in Fetal Bone Released into Media (%) after 2 days incubation", "setting": "[2]; Table 3, PTH + 2 μg/ml", "value": "44.2 ± 2.1", "unit": "%"}, {"measurement": "^45 Calcium in fetal bone Released into media (%) after 5 days incubation", "setting": "[2]; Table 3, PTH + 2 μg/ml", "value": "74.7 ± 3.1", "unit": "%"}, {"measurement": "^45 Calcium in Fetal Bone Released into Media (%) after 2 days incubation", "setting": "[2]; [5]", "value": "42.9 ± 1.9", "unit": "%"}, {"measurement": "^45 Calcium in fetal bone Released into media (%) after 5 days incubation", "setting": "[2]; [5]", "value": "70.2 ± 3.7", "unit": "%"}, {"measurement": "^45 Calcium in Fetal Bone Released into Media (%) after 2 days incubation", "setting": "[2]; [6]", "value": "45.7 ± 2.5", "unit": "%"}, {"measurement": "^45 Calcium in fetal bone Released into media (%) after 5 days incubation", "setting": "[2]; [6]", "value": "71.8 ± 3.5", "unit": "%"}, {"measurement": "^45 Calcium in Fetal Bone Released into Media (%) after 2 days incubation", "setting": "[2]; Table 3, PTH + 20 μg/ml", "value": "22.5 ± 1.6", "unit": "%"}, {"measurement": "^45 Calcium in fetal bone Released into media (%) after 5 days incubation", "setting": "[2]; Table 3, PTH + 20 μg/ml", "value": "29.2 ± 1.8", "unit": "%"}, {"measurement": "^45 Calcium in Fetal Bone Released into Media (%) after 2 days incubation", "setting": "[2]; [7]", "value": "21.5 ± 1.5", "unit": "%"}, {"measurement": "^45 Calcium in fetal bone Released into media (%) after 5 days incubation", "setting": "[2]; [7]", "value": "31.9 ± 2.1", "unit": "%"}, {"measurement": "^45 Calcium in fetal bone Released into media (%) after 5 days incubation", "setting": "[2]; Table 3, PTH + 20 μg/ml minocycline + 300 μg/ml Pen.-Strep.", "value": "33.5 ± 1.3", "unit": "%"}, {"measurement": "^45 Calcium in Fetal Bone Released into Media (%) after 2 days incubation", "setting": "[2]; Table 3, PTH + 60 μg/ml", "value": "19.4 ± 0.9", "unit": "%"}, {"measurement": "^45 Calcium in fetal bone Released into media (%) after 5 days incubation", "setting": "[2]; Table 3, PTH + 60 μg/ml", "value": "24.5 ± 1.1", "unit": "%"}, {"measurement": "^45 Calcium in Fetal Bone Released into Media (%) after 2 days incubation", "setting": "[2]; Table 3, PTH + 200 μg/ml", "value": "17.6 ± 0.4", "unit": "%"}, {"measurement": "^45 Calcium in fetal bone Released into media (%) after 5 days incubation", "setting": "[2]; Table 3, PTH + 200 μg/ml", "value": "22.3 ± 0.5", "unit": "%"}, {"measurement": "^45 Calcium in Fetal Bone Released into Media (%) after 2 days incubation", "setting": "[2]; Table 4, first column, PTH + 0.2 μg/ml", "value": "54.5 ± 4.1", "unit": "%"}, {"measurement": "^45 Calcium in Fetal Bone Released into Media (%) after 2 days incubation", "setting": "[2]; Table 4, first column, PTH + 2.0 μg/ml", "value": "56.5 ± 2.6", "unit": "%"}, {"measurement": "^45 Calcium in Fetal Bone Released into Media (%) after 2 days incubation", "setting": "[2]; Table 4, first column, PTH + 20 μg/ml", "value": "40.7 ± 0.8", "unit": "%"}, {"measurement": "^45 Calcium in Fetal Bone Released into Media (%) after 2 days incubation", "setting": "[2]; Table 4, first column, PTH + 200 μg/ml", "value": "16.4 ± 1.1", "unit": "%"}, {"measurement": "^45 Calcium in Fetal Bone Released into Media (%) after 2 days incubation", "setting": "[2]; Table 4, second column, PTH + 0.2 μg/ml", "value": "95.1 ± 1.8", "unit": "%"}, {"measurement": "^45 Calcium in Fetal Bone Released into Media (%) after 2 days incubation", "setting": "[2]; Table 4, second column, PTH + 2.0 μg/ml", "value": "93.3 ± 2.6", "unit": "%"}, {"measurement": "^45 Calcium in Fetal Bone Released into Media (%) after 2 days incubation", "setting": "[2]; Table 4, second column, PTH + 20 μg/ml", "value": "50.1 ± 0.8", "unit": "%"}, {"measurement": "^45 Calcium in Fetal Bone Released into Media (%) after 2 days incubation", "setting": "[2]; Table 4, second column, PTH + 200 μg/ml", "value": "20.4 ± 1.5", "unit": "%"}, {"measurement": "effect on PTH-enhanced bone resorption, in words", "setting": "[2]; concentrations 0.2-300 μg/ml", "value": "inhibit ^45 calcium release in a dose responsive manner"}, {"measurement": "% Reduction by Treatment", "setting": "[3]; Patient #1", "value": 81.8, "unit": "%"}, {"measurement": "Synovial Tissue Collagenolytic Activity (% C^14-collagen degraded) After Minocycline Treatment", "setting": "[3]; Patient #1, oral for 10 days, before treatment 43.0", "value": 7.8, "unit": "%"}, {"measurement": "% Reduction by Treatment", "setting": "[3]; Patient #2", "value": 68.8, "unit": "%"}, {"measurement": "Synovial Tissue Collagenolytic Activity (% C^14-collagen degraded) After Minocycline Treatment", "setting": "[3]; Patient #2, oral for 10 days, before treatment 41.0", "value": 12.8, "unit": "%"}, {"measurement": "% Reduction by Treatment", "setting": "[3]; Patient #3", "value": "did not reduce collagenolytic activity much further"}, {"measurement": "Synovial Tissue Collagenolytic Activity (% C^14-collagen degraded) After Minocycline Treatment", "setting": "[3]; Patient #3, oral for 10 days, before treatment 18.6", "value": 18.0, "unit": "%"}, {"measurement": "% Reduction by Treatment", "setting": "[3]; Patient #3, listed as Minocycline", "value": 3.3, "unit": "%"}, {"measurement": "reduction of synovial collagenolytic enzyme activity", "setting": "[3]; patients #1 and 2 (high level of activity)", "value": "69-82%"}]}]}
